Values quoted from earlier work as cited in patent publication US20220143119A1, “CROTON LECHLERI COMPOSITIONS FOR USE IN THE TREATMENT OF SKIN CANCER” (ALPHYN BIOLOGICS, LLC, priority 2019, published 2022).

Tested on: human melanoma SK23

In the case of `COc1ccc2c(=O)oc3c(OC)cc(CCN(C)C)c4c(=O)oc1c2c34` [taspine], the “inhibition against human melanoma SK23” value is given as “exhibits inhibition”.
